Experimental data: publication PMC5411961, “One amino acid makes a difference–Characterization of a new TPMT allele and the influence of SAM on TPMT stability” (Scientific Reports, 2017)
pKd: −log10 of the molar value.

Target: T1, TPMTwt (Homo sapiens, UniProt P51580)
T1 construct: gene TPMT; recombinant, pET-28a, E. coli BL21(DE3) CodonPlus, His-tag cleaved off with thrombin, Ni-NTA and gel filtration
T1 sequence (P51580 1-245): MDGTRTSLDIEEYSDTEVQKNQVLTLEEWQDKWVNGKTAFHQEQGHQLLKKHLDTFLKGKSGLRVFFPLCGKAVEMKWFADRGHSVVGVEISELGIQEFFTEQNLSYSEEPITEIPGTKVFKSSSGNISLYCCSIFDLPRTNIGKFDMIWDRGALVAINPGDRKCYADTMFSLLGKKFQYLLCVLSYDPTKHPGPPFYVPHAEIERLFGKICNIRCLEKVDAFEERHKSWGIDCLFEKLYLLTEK
Assay: isothermal titration calorimetry
Format: binding

- pKd: 5.57
SMILES: C[S+](CC[C@H](N)C(=O)O)C[C@H]1O[C@@H](n2cnc3c(N)ncnc32)[C@H](O)[C@@H]1O (stereo partly shown) [SAM]
